# Experimental data as given in patent publication US20260373119A1, “NOVEL COMPOUND, AND COMPOSITION FOR PREVENTING OR TREATING HER2-POSITIVE CANCER, COMPRISING SAME” (EWHA UNIVERSITY - INDUSTRY COLLABORATION FOUNDATION, priority 2022, published 2026).
# How the values were obtained:
# [1] = permeability; type: in vitro ADME
# [2] = test system: HER2 and downstream signaling (phosphorylated AKT and MAPK); experiment: HER2 expression and downstream signaling, TZMB-sensitive and -resistant cells; type: cell-based
# Protocol: For western blot analysis, cells were seeded in a 6-well plate and lysed in 1×RIPA lysis buffer (Cell Signaling, USA) containing 1% 0.1 M [COMPOUND LEFT OUT] and 1% 100× protease inhibitor cocktail solution (Genedepot, USA). Total protein levels were standardized using the Pierce™ BCA Protein Assay Kit (Thermo Fisher Scientific, USA) and a microplate reader (Tecan Group Ltd., Switzerland). A total of 20 μg of protein was loaded onto a 10-15% SDS-PAGE acrylamide gel and transferred to a 0.2 μm PVDF membrane (Pall Life Science, USA). The membrane was blocked with 5% skim milk or 5% BSA, and the membrane was cultured with primary antibodies (purchased from Thermo Fisher, Cell Signaling, Santa Cruz, Novus, or MBL) at room temperature for 3 hours or overnight at 4 °C. The blot was washed three times with Tris-buffered saline containing 0.1% Tween20 (1×TBST) and incubated with an HRP-conjugated secondary antibody (GeneTex, USA). Protein bands were detected using ECL solution reagents (GE Healthcare, USA) and the LAS-3000 imaging system (Fuji Photo Film Co., Ltd., Japan), and captured images were analyzed using Multi-Gauge software (Fuji Photo Film Co. Ltd.). The preparation of cell lysates for subsequent analyses was performed using the same method as described for western blot analysis.
# The ability of the candidate compound to overcome trastuzumab resistance was evaluated.
compound,measurement,setting,value
"CC(=O)N1N=C(c2cccc(O)c2)CC1c1ccc(Cl)cc1 (centres unmarked) [Compound 15, 1-[5-(4-Chlorophenyl)-3-(3-hydroxyphenyl)-4,5-dihydropyrazol-1-yl]-ethanone]",permeability,[1],reasonable
same,HER2 expression and downstream signaling,[2],"significantly downregulated HER2 expression and downstream signaling, including phosphorylated AKT and MAPK"
